Like-named read-outs stand apart in the source and are kept apart here.

The target of the experiment is FLNA pentapeptide of SEQ ID NO: 1 (Bn-VAKGL) (Homo sapiens, UniProt P21333). Kind of experiment: FITC-NLX-based FLNA screening assay (inhibition of FITC-naloxone binding to Bn-VAKGL on streptavidin plates). As to conditions: for inhibition at 0.01 µM / inhibition at 0.1 µM / inhibition at 1 µM / Percent Binding Inhibition: 10 nM FITC-NLX; for Inhibition of 10 nM FITC-conjugated NLX binding to biotinylated FLNA pentapeptide (FIG. 28): 10 μM; for Percent inhibition of FITC-NLX binding (preliminary study): 100 nM frozen-stored FITC-NLX, average of two runs.

[1] abbreviates: FLNA-binding compound 0.01 μM, read-out: Percent Binding Inhibition.
Setting [2] is: FLNA-binding compound 0.1 μM, read-out: Percent Binding Inhibition.
Where [3] appears, read: FLNA-binding compound 1 μM, read-out: Percent Binding Inhibition.

Usually inhibition stands for the percentage by which the read-out fell short of the control. `C=CCN1CC[C@]23c4c5ccc(O)c4O[C@H]2C(=O)CC[C@@]3(O)[C@H]1C5` [Naloxone Control, naloxone, reference compound]: the inhibition at 0.01 µM (read-out: Percent Binding Inhibition, FLNA-binding compound 0.01 μM) is 39.9%. Also, the inhibition at 0.1 µM (read-out: Percent Binding Inhibition, FLNA-binding compound 0.1 μM) is 46.3%. For the setting “read-out: Percent Binding Inhibition, FLNA-binding compound 1 μM”, the inhibition at 1 µM stood at 50.9%.

On to `CN1CC[C@]23c4c5ccc(O)c4O[C@H]2[C@@H](O)C=C[C@H]3[C@H]1C5` [morphine, reference compound], for which the “Inhibition of 10 nM FITC-conjugated NLX binding to biotinylated FLNA pentapeptide (FIG. 28)” value is reported as “minimal binding inhibition”.

In the case of `COc1ccc(CN2CCC3(CC2)OCCN3S(=O)(=O)c2ccc(OC)cc2)cc1` [Compound C0038], under setting [1], the inhibition at 0.01 µM turned out to be 31.7%. Further, under setting [2], the inhibition at 0.1 µM was 36%. Moreover, under setting [3], the inhibition at 1 µM stood at 43.5%.

For the compound `COc1ccc2c3c1O[C@H]1C(=O)CC[C@@]4(O)[C@@H](C2)N(C)CC[C@]314` [oxycodone, reference compound], the “Inhibition of 10 nM FITC-conjugated NLX binding to biotinylated FLNA pentapeptide (FIG. 28)” value is listed as “minimal binding inhibition”.

Consider `COc1ccc(OCC(O)CN2CCc3ccccc32)cc1` (stereo not shown) [Compound A0069], for which the “Percent Binding Inhibition” value (FLNA-binding compound 0.01 μM) amounted to 32.0%, the “Percent Binding Inhibition” value (FLNA-binding compound 0.1 μM) is recorded as 40.4% and the “Percent Binding Inhibition” value (FLNA-binding compound 1 μM) amounted to 46.1%.

With `C=CCN1CC[C@]23c4c5ccc(O)c4O[C@H]2C(=O)CC[C@]3(O)[C@H]1C5` [(+) NLX], the “Percent inhibition of FITC-NLX binding (preliminary study)” value (“Percent inhibition of FITC-NLX binding” below) (compound 0.1 nM) is 22.7%; the “Percent inhibition of FITC-NLX binding” value (compound 1 nM) was found to be 22.8%; the “Percent inhibition of FITC-NLX binding” value (compound 10 nM) stood at 23.1%; the “Percent inhibition of FITC-NLX binding” value (compound 100 nM) was 22.8%; the “Percent inhibition of FITC-NLX binding” value (compound 1 µM) is recorded as 39.8%.

Take `NS(=O)(=O)c1ccc(S(=O)(=O)N2CCC3(CC2)NCCO3)cc1` [Compound C0034-3]: under setting [1], the inhibition at 0.01 µM stood at 29.6%. Besides, the inhibition at 0.1 µM under setting [2] is 38.3%. The inhibition at 1 µM under setting [3] was 44.8%.

The record behind these values is US10363239B2, “Method for inhibiting growth of cancer cells” (Pain Therapeutics, Inc., priority 2013, dated 2019).
